Entries after “also recorded” stand apart in the source; their conditions may differ.
Assays:
[1] = tested on: wild-type P. aeruginosa PA14; assay: Microarray gene expression analysis, wild-type strain; assay type: cell-based; settings: WT P. aeruginosa PA14, 100 μM
Experimental: Methods. Overnight P. aeruginosa PA14 cultures were back-diluted 1:1000 into 5 mL of fresh LB. 100 μM mBTL, or an equivalent amount of DMSO, was added to cultures which were grown aerobically with shaking at 37° C. for 17 hr. 9 ODs of cells were harvested for each treatment. Lysozyme (1 mg/mL in TE buffer) (Sigma) was added for 10 min at room temperature. Total RNA was prepared using the RNeasy Midi Kit (Qiagen). RNA was treated with RNase-Free DNaseI (Ambion) for 1 hr at 37° C., inactivated using DNaseI Inactivation Reagent Resin (Ambion), and re-purified using the RNeasy Mini Kit. […] The library was purified using the PCR Purification kit (Qiagen) and assessed for Cy3 and Cy5 incorporation using a Nanodrop ND-1000 Spectrophotometer (Nanodrop Technologies). […] Microarrays were scanned using an Agilent G2505C scanner and analyzed using Agilent Feature Extract software version 9.5. Resulting microarray intensity data were submitted to the PUMA Database (http://puma.princeton.edu) for archiving and analyzed using Matlab R2013a.
Overnight P. aeruginosa PA14 cultures were back-diluted 1:1000 into 5 mL of fresh LB. […] The library was purified using the PCR Purification kit (Qiagen) and assessed for Cy3 and Cy5 incorporation using a Nanodrop ND-1000 Spectrophotometer (Nanodrop Technologies). […]

[2] = tested on: wild-type P. aeruginosa PA14; assay: microbe, parasite or virus in culture; assay type: cell-based; settings: for Efficacy (%): Table 3, reduction of pyocyanin vs WT P. aeruginosa PA14: 0% = WT level, 100% = background medium; for inhibition of pyocyanin production (in words): wild-type P. aeruginosa PA14, end point assays at 100 μM
Experimental: (§1) Methods. The oxidized form of pyocyanin imparts a green color to P. aeruginosa cultures, making the production of pyocyanin convenient to monitor by UV/Vis absorbance. Overnight P. aeruginosa cultures were subcultured into 5 mL fresh medium at 1:1000 dilution. Synthetic compounds were assayed at 100 μM for end point assays and at concentrations ranging from 200 nM to 200 μM for titrations following 17 hr of aerobic growth with shaking at 37° C. Cells were separated from culture fluids via centrifugation at 13,000 rpm for 15 min. Culture fluids were passed through 0.22 μm syringe driven filters (Millipore). Cell-free culture fluids were analyzed for pyocyanin using wavelength scans on a Beckman Coulter DU-800 spectrophotometer from 200 nm to 800 nm 695 nm was chosen for graphical representation. Titration data were fit with a variable-slope sigmoidal dose-response curve using GraphPad Prism to determine the IC50 values.
The compounds of the first library were assayed in wild-type (WT) P. aeruginosa PA14. Pyocyanin was used as a read-out for quorum sensing activity based on its absorbance at 695 nm. The efficacy of the compounds at reducing pyocyanin levels was calculated with respect to WT levels of pyocyanin, where WT levels of pyocyanin would lead to a 0% efficacy, and an absorbance equal to the background medium would lead to a 100% efficacy. Agonists that increase pyocyanin production have negative efficacy values.

[3] = tested on: ΔlasRrhlR strain of P. aeruginosa; assay: Pyocyanin production in mutant lacking LasR and RhlR; assay type: cell-based; settings: treated vs DMSO
Experimental: as §1
The compounds were designed to be AHL analogs that bind and antagonize LasR and/or RhlR. If either receptor were the target, a ΔlasRrhlR strain of P. aeruginosa would not be expected to have a further reduction of pyocyanin when treated with an inhibitor.

RhlR = molecular target: T1, RhlR (Pseudomonas aeruginosa, UniProt P54292); assay: RhlR-GFP assay (rhlA-gfp reporter in recombinant E. coli); assay type: cell-based, P. aeruginosa
T1 construct: expressed in transfected cells; host or cells: E. coli BL21-Gold (DE3) carrying pET23b-rhlR
T1 sequence (P54292 whole entry): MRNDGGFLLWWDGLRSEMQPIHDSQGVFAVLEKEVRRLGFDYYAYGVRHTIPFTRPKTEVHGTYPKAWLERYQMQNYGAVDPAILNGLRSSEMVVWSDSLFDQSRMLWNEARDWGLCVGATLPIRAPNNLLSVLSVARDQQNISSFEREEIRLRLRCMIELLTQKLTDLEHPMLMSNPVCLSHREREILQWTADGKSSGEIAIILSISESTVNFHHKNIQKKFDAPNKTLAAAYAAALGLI
Experimental: (§2) Methods. The LasR-GFP assays were performed in E. coli strain BL21 DE3 Gold (Agilent) carrying pET23b (Novagen) containing lasR (maintained with 100 μg/mL ampicillin) and carrying plasmid pEVS141 (31) containing the rsaL promoter driving expression of gfp (maintained with […] of kanamycin.) The RhlR-GFP assays were performed in E. coli strain BL21 DE3 Gold (Agilent) carrying pET23b (Novagen) containing rhlR (maintained with 100 μg/mL ampicillin) and carrying plasmid pEVS141 containing the rhlA promoter driving expression of gfp (maintained with 50 μg/mL of kanamycin.) These E. coli strains were grown overnight and subcultured into fresh medium with appropriate antibiotics at a 1:100 dilution and grown shaking for 8 hr at 37° C. for the LasR-GFP strain and 12 hr for the RhlR-GFP construct. 50 nM 3OC12-HSL or 20 μM C4-HSL was added to the LasR-GFP and RhlR-GFP preparations, respectively. Compounds were tested at 1 mM for antagonism and at 100 nM or 20 μM for agonism. These concentrations were chosen for agonism studies to match the concentrations of autoinducers used in the experiments. For antagonism studies, the EC95 concentration was used for each receptor. GFP was measured on an Envision plate reader.
(§3) The LasR-GFP assays were performed in E. coli strain BL21 DE3 Gold (Agilent) carrying pET23b (Novagen) containing lasR (maintained with 100 μg/mL ampicillin) and carrying plasmid pEVS141 (31) containing the rsaL promoter driving expression of gfp (maintained with 50 μg/mL of kanamycin.) The RhlR-GFP assays were performed in E. coli strain BL21 DE3 Gold (Agilent) carrying pET23b (Novagen) containing rhlR (maintained with 100 μg/mL ampicillin) and carrying plasmid pEVS141 (31) containing the rhlA promoter driving expression of gfp (maintained with 50 μg/mL of kanamycin.) These E. coli strains were grown overnight and subcultured into fresh medium with appropriate antibiotics at a 1:100 dilution and grown shaking for 8 hr at 37° C. for the LasR-GFP strain and 12 hr for the RhlR-GFP construct. 50 nM 3OC12-HSL or 20 μM C4-HSL was added to the LasR-GFP and RhlR-GFP preparations, respectively. Compounds were tested at 1 mM for antagonism and at 100 nM or 20 μM for agonism. These concentrations were chosen for agonism studies to match the concentrations of autoinducers used in our experiments. For antagonism studies, we used the EC95 concentration for each receptor. GFP was measured on an Envision plate reader.

LasR = molecular target: T2, LasR (Pseudomonas aeruginosa, UniProt P25084); assay: LasR-GFP assay (rsaL-gfp reporter in recombinant E. coli); assay type: cell-based, P. aeruginosa
T2 construct: expressed in transfected cells; host or cells: E. coli BL21-Gold (DE3) carrying pET23b-lasR
T2 sequence (P25084 whole entry): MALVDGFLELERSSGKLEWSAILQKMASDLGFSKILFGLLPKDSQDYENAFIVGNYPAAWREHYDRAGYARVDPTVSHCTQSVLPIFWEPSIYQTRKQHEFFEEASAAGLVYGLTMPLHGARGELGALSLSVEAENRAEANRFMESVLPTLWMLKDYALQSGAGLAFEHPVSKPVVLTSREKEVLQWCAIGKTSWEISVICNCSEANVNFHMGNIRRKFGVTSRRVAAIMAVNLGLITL
Experimental: as §2, §3

[4] = tested on: A549 human lung cells infected with P. aeruginosa PA14; assay: A549 human lung cell infection (propidium iodide uptake); assay type: cell-based; settings: wild-type and lasR mutant strains; 100 μM compound
Experimental: Methods. Human A549 cells were grown in CellStar tissue culture flasks. Prior to infection, the A549 cells were treated with trypsin-EDTA (CellGro), split, counted, and aliquotted into 96 well plates at 20,000 mammalian cells/well (cell counts were estimated using Trypan Blue (CellGro) exclusion). Cells were grown for 20 hr at 37° C. in DMEM (Invitrogen). Cells were washed 3× with warm PBS (Gibco). 100 μL of “master mix” was added to each well for each condition. Master mix contained 1 mL pre-warmed-PBS, 5 μL of 2 mg/mL propidium iodide (Bioprobes), 1 μL of a 100 mM inhibitor stock or DMSO, and 10 μL of OD600=2 P. aeruginosa PA14 grown in the presence of mBTL or DMSO. Infections were monitored using an EnVision plate reader every 2 hr with the RFP filter supplied by GE.

O=C(COc1cccc(Br)c1)Nc1ccnc(C(F)(F)F)c1 [compound 16, 4-amino-2-trifluoromethylpyridine-C6-3-bromophenoxyhybrid]
effect on pyocyanin biosynthetic genes (microarray) [1]: none of the pyocyanin biosynthetic genes are impacted
Efficacy (%) ([2]; listed as Table 3 entry 18): 99%
Efficacy (%) ([2]; listed as drawing 76): 99 ± 0.3%
inhibition of pyocyanin production (in words) [2]: highly effective at blocking pyocyanin production
pyocyanin levels in strain lacking LasR and RhlR [3]: pyocyanin levels are further reduced

chlorolactone [CL]
RhlR agonism (in words) (RhlR; 20 μM, no autoinducer): does not agonize either receptor
inhibition of RhlR-directed transcription in E. coli (in words) (RhlR; tested at 1 mM with C4-HSL): more potent inhibitor of both LasR- and RhlR-directed transcription in E. coli than is mBTL; also recorded: inhibits LasR- and RhlR-controlled transcription
LasR agonism (in words) (LasR; 100 nM, no autoinducer): does not agonize either receptor
inhibition of LasR-directed transcription in E. coli (in words) (LasR; tested at 1 mM with 3OC12-HSL): more potent inhibitor of both LasR- and RhlR-directed transcription in E. coli than is mBTL; also recorded: inhibits LasR- and RhlR-controlled transcription
killing of A549 cells by P. aeruginosa [4]: does not attenuate killing of A549 lung cells
inhibition of pyocyanin production (in words) [2]: Neither CL nor CTL inhibited pyocyanin production; also recorded: no in vivo inhibition of pyocyanin production

From patent US9751851B2, “Molecules and compositions that inhibit gram negative bacteria and their uses” (THE TRUSTEES OF PRINCETON UNIVERSITY, priority 2013, dated 2017)
